Test results as given in ChEMBL document CHEMBL1137951, “Synthesis and in vitro evaluation of 7-dialkylaminomethylbenzo[g]quinoxaline-5,10-diones” (Bioorg Med Chem Lett, 2004).

Legend:
Format in all cases: functional, cell-based
MDA-MB-468 = assay: In vitro cytotoxic activity against human breast cancer cell line MD-MB-468 after 72 hr of drug exposure determined by the SRB assay; details: MDA-MB-468, 72 h
T47D = assay: In vitro cytotoxic activity against human breast cancer cell line T-47D after 72 hr of drug exposure determined by the SRB assay
SK-OV-3 = assay: In vitro cytotoxic activity against human ovarian carcinoma cell line SK-OV-3 after 72 hr of drug exposure determined by the SRB assay; details: SK-OV-3, 72 h
HCT-15 = assay: In vitro cytotoxic activity against human colon cancer cell line HCT15 after 72 hr of drug exposure determined by the SRB assay; details: HCT-15, 72 h

| Compound | IC50 (MDA-MB-468) | IC50 (T47D) | IC50 (SK-OV-3) | IC50 (HCT-15) |
| --- | --- | --- | --- | --- |
| O=C1c2ccc(CN(CCO)CCO)cc2C(=O)c2nccnc21 | 900 nM | 900 nM | 1200 nM | 180 nM |
| CO[C@@]12[C@H](COC(N)=O)C3=C(C(=O)C(C)=C(N)C3=O)N1C[C@@H]1N[C@@H]12 [MITOMYCIN] | 270 nM | 400 nM | 180 nM | 70 nM |
| O=C1c2ccc(CN3CCCCC3)cc2C(=O)c2nccnc21 | 200 nM | 80 nM | 400 nM | 50 nM |
| O=C1c2ccc(CN3CCOCC3)cc2C(=O)c2nccnc21 | 3200 nM | 1300 nM | 7000 nM | 1300 nM |
| Cc1ccc2c(c1)C(=O)c1nccnc1C2=O | 1500 nM | 1200 nM | 2200 nM | 120 nM |
| O=C1c2ccc(CN3CCCC3)cc2C(=O)c2nccnc21 | 100 nM | 100 nM | 250 nM | 100 nM |
| CN(C)Cc1ccc2c(c1)C(=O)c1nccnc1C2=O | 100 nM | 100 nM | 220 nM | 100 nM |
| CN1CCN(Cc2ccc3c(c2)C(=O)c2nccnc2C3=O)CC1 | 3000 nM | 3000 nM | 10000 nM | 1200 nM |
| O=C1c2ccc(CBr)cc2C(=O)c2nccnc21 | 300 nM | 500 nM | 1600 nM | 400 nM |
| COc1cccc2c1C(=O)c1c(O)c3c(c(O)c1C2=O)C[C@@](O)(C(=O)CO)C[C@@H]3O[C@H]1C[C@H](N)[C@H](O)[C@H](C)O1 [DOXORUBICIN] | 7 nM | 7 nM | – | 25 nM |
